Key:
P. vulgaris 50 = test: Synergistic activity with other β-lactam antibiotics (MIC); type: cell-based
Description: (§1) (c) Synergistic activity with other β-lactam antibiotics

S. marcescens 39 = test: as above; type: cell-based
Description: as §1

S. aureus 2132 = test: as above; type: cell-based
[1] = molecular target: lactamase of cephalosporinase type (Enterobactor cloacae 92) (Enterobacter cloacae, UniProt P05364); test: β-Lactamase inhibitory activity; type: biochemical; details: β-lactamase producing bacteria Enterobactor cloacae 92, cephalosporinase type
Description: (§2) (b) β-Lactamase inhibitory activity
*produces lactamase of cephalosporinase type

[2] = test system: lactamase of penicillinase type (Klebsiella sp. 363); test: β-Lactamase inhibitory activity; type: biochemical; details: β-lactamase producing bacteria Klebsiella sp. 363, penicillinase type
Description: as §2
**produces lactamase of penicillinase type

Proteus mirabilis PR-4 = test: Antibacterial spectrum (MIC); type: cell-based; details: inoculum one loopful of 10^6 cfu/ml
Description: (§3) (a) Antibacterial spectrum | Inoculum size = one loopful of 10^6 cfu/ml

[3] = test system: Klebsiella pneumoniae SRL-1; test: Antibacterial spectrum (MIC); type: cell-based; details: inoculum one loopful of 10^6 cfu/ml
Description: as §3

[4] = test system: Pseudomonas aeruginosa ATCC 25619; test: Antibacterial spectrum (MIC); type: cell-based; details: inoculum one loopful of 10^6 cfu/ml
Description: as §3

Klebsiella sp. 363 (R) = test: Antibacterial spectrum (MIC); type: cell-based; details: inoculum one loopful of 10^6 cfu/ml
Description: as §3

[5] = test system: Serratia marcescens ATCC 13880; test: Antibacterial spectrum (MIC); type: cell-based; details: inoculum one loopful of 10^6 cfu/ml
Description: as §3

[6] = test system: Escherichia coli NIHJ JC-2; test: Antibacterial spectrum (MIC); type: cell-based; details: inoculum one loopful of 10^6 cfu/ml
Description: as §3

[7] = test system: Staphylococcus aureus 209P JC-1; test: Antibacterial spectrum (MIC); type: cell-based; details: inoculum one loopful of 10^6 cfu/ml
Description: as §3

Enterobactor cloacae 233 = test: Antibacterial spectrum (MIC); type: cell-based; details: inoculum one loopful of 10^6 cfu/ml
Description: as §3

[8] = test system: Streptococcus pneumoniae I; test: Antibacterial spectrum (MIC); type: cell-based; details: inoculum one loopful of 10^6 cfu/ml
Description: as §3

Chain of lactamase of cephalosporinase type (Enterobactor cloacae 92) (P05364 21-381): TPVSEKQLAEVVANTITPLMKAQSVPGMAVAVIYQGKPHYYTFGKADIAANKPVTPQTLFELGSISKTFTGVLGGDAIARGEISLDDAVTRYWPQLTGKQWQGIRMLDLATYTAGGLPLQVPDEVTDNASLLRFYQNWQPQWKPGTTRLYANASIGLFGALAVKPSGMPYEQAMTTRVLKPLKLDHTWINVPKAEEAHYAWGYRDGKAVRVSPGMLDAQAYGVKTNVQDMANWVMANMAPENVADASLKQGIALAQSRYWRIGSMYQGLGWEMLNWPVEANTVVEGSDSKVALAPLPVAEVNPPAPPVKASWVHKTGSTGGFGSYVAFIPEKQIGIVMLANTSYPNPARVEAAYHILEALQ

Compound: CC1(C)S[C@@H]2[C@H](NC(=O)[C@H](N)c3ccccc3)C(=O)N2[C@H]1C(=O)O [Ampicillin, ampicillin]
- MIC of Ampicillin (P. vulgaris 50; PA-31088-IV 0 μg/ml): > 200 µg/mL
- MIC of Ampicillin (P. vulgaris 50; with PA-31088-IV 2.5 μg/ml): 6.3 µg/mL
- MIC of Ampicillin (P. vulgaris 50; with PA-31088-IV 10 μg/ml): 1.6 µg/mL
- MIC of Ampicillin (S. marcescens 39; PA-31088-IV 0 μg/ml): > 200 µg/mL
- MIC of Ampicillin (S. marcescens 39; with PA-31088-IV 2.5 μg/ml): 3.1 µg/mL
- MIC of Ampicillin (S. marcescens 39; with PA-31088-IV 10 μg/ml): 0.1 µg/mL

Compound: Cc1nnc(SCC2=C(C(=O)O)N3C(=O)[C@@H](NC(=O)Cn4cnnn4)[C@H]3SC2)s1 [Cefazolin, cefazolin]
- MIC of Cefazolin (S. aureus 2132; PA-31088-IV 0 μg/ml): 6.3 µg/mL
- MIC of Cefazolin (S. aureus 2132; with PA-31088-IV 2.5 μg/ml): 0.8 µg/mL
- MIC of Cefazolin (S. aureus 2132; with PA-31088-IV 10 μg/ml): 0.4 µg/mL
- MIC of Cefazolin (P. vulgaris 50; PA-31088-IV 0 μg/ml): > 200 µg/mL
- MIC of Cefazolin (P. vulgaris 50; with PA-31088-IV 2.5 μg/ml): 6.3 µg/mL
- MIC of Cefazolin (P. vulgaris 50; with PA-31088-IV 10 μg/ml): 3.1 µg/mL
- MIC of Cefazolin (S. marcescens 39; PA-31088-IV 0 μg/ml): > 200 µg/mL
- MIC of Cefazolin (S. marcescens 39; with PA-31088-IV 2.5 μg/ml): 6.3 µg/mL
- MIC of Cefazolin (S. marcescens 39; with PA-31088-IV 10 μg/ml): 0.4 µg/mL

Compound: CC(=O)NC=CS(=O)(=O)C1=C(C(=O)O)N2C(=O)C(=C(C)CO)C2C1 (centres unmarked) [PA-31088-IV, 3-[(2-acetamidoethylene)sulfonyl]-6-(2-hydroxy-1-methylethylidene)-7-oxo-1-azabicyclo[3.2.0]hept-2-ene-2-carboxylic acid]
- Minimum Inhibitory Concentration (β-lactamase inhibitory activity) [1]: 0.98 µg/mL
- Minimum Inhibitory Concentration (β-lactamase inhibitory activity) [2]: 0.06 µg/mL
- MIC of PA-31088-IV (S. aureus 2132; PA-31088-IV alone): > 10 µg/mL
- MIC of PA-31088-IV (P. vulgaris 50; PA-31088-IV alone): > 10 µg/mL
- MIC of PA-31088-IV (S. marcescens 39; PA-31088-IV alone): > 10 µg/mL
- Minimum Inhibitory Concentration (Proteus mirabilis PR-4): 6.25 µg/mL
- Minimum Inhibitory Concentration [3]: 1.56 µg/mL
- Minimum Inhibitory Concentration [4]: 50 µg/mL
- Minimum Inhibitory Concentration (Klebsiella sp. 363 (R)): 3.13 µg/mL
- Minimum Inhibitory Concentration [5]: 12.5 µg/mL
- Minimum Inhibitory Concentration [6]: 3.13 µg/mL
- Minimum Inhibitory Concentration [7]: 3.13 µg/mL
- Minimum Inhibitory Concentration (Enterobactor cloacae 233): 3.13 µg/mL
- Minimum Inhibitory Concentration [8]: 0.39 µg/mL

Reference: patent publication US4292241A, “Antibiotic PA-31088-IV and production thereof” (Shionogi & Co., Ltd., priority 1979, dated 1981)
